Laboratory results taken from US7253285B2, “Thiazolinone 4-monosubstituted quinolines” (Hoffmann-La Roche Inc., priority 2004, dated 2007).
Structures can show the parent of a compound that is named as a salt.

How the values were obtained:
[1] = molecular target: T1, recombinant human CDK1/Cyclin B complex (Homo sapiens, UniProt P06493); assay: CDK1/Cyclin B kinase assay (FlashPlate or HTRF); type: biochemical; settings: Rb protein substrate, Ki=IC50/(1+[S]/Km)
T1 construct: made in house; host or cells: High Five insect cells (baculovirus) for CDK1/GST-cyclin B; E. coli M15 for the Rb substrate
T1 sequence (P06493 whole entry): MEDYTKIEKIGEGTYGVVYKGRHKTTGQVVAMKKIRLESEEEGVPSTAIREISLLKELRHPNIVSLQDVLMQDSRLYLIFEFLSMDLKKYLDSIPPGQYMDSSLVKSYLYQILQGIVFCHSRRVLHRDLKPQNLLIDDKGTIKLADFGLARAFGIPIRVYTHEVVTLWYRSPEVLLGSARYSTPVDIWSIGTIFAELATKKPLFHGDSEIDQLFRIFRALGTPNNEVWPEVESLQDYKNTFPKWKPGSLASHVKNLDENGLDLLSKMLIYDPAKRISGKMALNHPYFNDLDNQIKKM
T1 sequence (P14635 whole entry partner): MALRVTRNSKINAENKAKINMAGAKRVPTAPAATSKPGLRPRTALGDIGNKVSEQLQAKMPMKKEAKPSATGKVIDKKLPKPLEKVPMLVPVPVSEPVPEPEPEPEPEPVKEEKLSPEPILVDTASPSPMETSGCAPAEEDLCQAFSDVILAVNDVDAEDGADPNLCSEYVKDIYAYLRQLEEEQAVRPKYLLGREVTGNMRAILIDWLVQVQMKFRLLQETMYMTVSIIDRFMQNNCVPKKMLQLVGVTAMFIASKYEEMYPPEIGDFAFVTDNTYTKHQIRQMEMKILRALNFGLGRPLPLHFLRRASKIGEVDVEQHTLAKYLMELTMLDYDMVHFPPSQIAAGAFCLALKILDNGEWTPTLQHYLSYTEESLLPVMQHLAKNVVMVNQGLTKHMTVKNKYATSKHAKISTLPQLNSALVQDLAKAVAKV
Protocol: To determine inhibition of CDK1 activity, either FlashPlate™ (NEN™-Life Science Products) assay or HTRF assay was performed. Both types of kinase assays were carried out using recombinant human CDK1/Cyclin B complex. GST-cyclinB (GST-cycB) and CDK1 cDNA clones in baculovirus vectors were provided by Dr. W. Harper at the Baylor College of Medicine, Houston, Tex. Proteins were co-expressed in High Five™ insect cells and the complex was purified on glutathione Sepharose resin (Pharmacia, Piscataway, N.J.) as previously described (Harper, J. W. et al. Cell 1993, 75, 805-816). A 6×-Histidine tagged truncated form of retinoblastoma (Rb) protein (amino acid 386-928) was used as the substrate for the CDK1/Cyclin B assay (the expression plasmid was provided by Dr. Veronica Sullivan, Department of Molecular Virology, Roche Research Centre, Welwyn Garden City, United Kingdom). The Rb protein is a natural substrate for phosphorylation by CDK1 (see Herwig and Strauss Eur. J. Biochem. Vol. 246 (1997) pp. 581-601 and the references cited therein). The expression of the 62 Kd protein was under the control of an IPTG inducible promoter in an M15 E. coli strain. Cells were lysed by sonication and purification was carried out by binding lysates at pH 8.0 to a Ni-chelated agarose column pretreated with 1 mM imidazole. The resin was then washed several times with incrementally decreasing pH buffers to pH 6.0, and eluted with 500 mM imidazole. Eluted protein was dialysed against 20 mM HEPES pH 7.5, 30% glycerol, 200 mM NaCl, and 1 mM DTT. Purified Rb fusion protein stocks were quantitated for protein concentration, aliquoted, and stored at −70° C.
For the FlashPlate kinase assay, 96-well FlashPlates were coated with Rb protein at 10 μg/ml, using 100 μl per well. Plates were incubated at 4° C. overnight or at room temperature for 3 hours on a shaker. To control for nonspecific phosphorylation, one row of wells was coated with 100 μl/well coating buffer (20 mM HEPES, 0.2 M NaCl). Plates were then washed twice with wash buffer (0.01% Tween 20 in phosphate-buffered saline). Compounds to be tested (“test compounds”) were added to the wells at 5× final concentration. Reactions were initiated by immediate addition of 40 μl reaction mix (25 mM HEPES, 20 mM MgCl2, 0.002% Tween 20, 2 mM DTT, 1 μM ATP, 4 nM ^33P-ATP) and a sufficient amount of enzyme to give counts that were at least 10-fold above background. Plates were incubated at room temperature on a shaker for 30 minutes. Plates were washed four times with the wash buffer, sealed, and counted on the TopCount scintillation counter (Packard Instrument Co., Downers Grove, Ill.]. The percent inhibition of Rb phosphorylation, which is a measure of the inhibition of CDK activity, was determined according to the following formula:
[formula] where “test compound” refers to the average counts per minute of the test duplicates, “nonspecific” refers to the average counts per minute when no CDK1/Cyclin B, etc., was added, and “total” refers to the average counts per minute when no compound was added. The IC50 value is the concentration of test compound that reduces by 50% the protein-kinase induced incorporation of the radiolabel under the test conditions described. The value of the inhibitor constant Ki is calculated by the following: Ki=IC50/(1+[S]/Km), where [S] is the ATP concentration and Km is Michaelis constant.
The Homogeneous Time Resolved Fluorescence (HTRF) kinase assay was carried out in 96-well polypropylene plates (BD Biosciences, Bedford, Mass.). Test compounds were first dissolved in DMSO, and then diluted in kinase assay buffer 1 (25 mM HEPES, pH7.0, 8 mM MgCl2, 1.5 mM DTT, and 162 μM ATP) with DMSO concentration at 15%. The CDK1/Cyclin B enzyme was diluted in kinase assay buffer 2 (25 mM HEPES, pH 7.0, 8 mM MgCl2, 0.003% Tween 20, 0.045% BSA, 1.5 mM DTT, and 0.338 μM Rb protein). […]

SMILES	melting point	Ki [1]
COc1ccnc2ccc(/C=C3\SC(NCc4cccs4)=NC3=O)cc12 [Example 1, 5-(4-Methoxy-quinolin-6-ylmeth-(Z)-ylidine)-2-[(thiophen-2-ylmethyl)-amino]-thiazol-4-one]	258 to 262 °C	
COc1ccnc2ccc(/C=C3\SC(N[C@H]4C[C@@H]4c4ccccc4)=NC3=O)cc12 [Example 2, 5-(4-Methoxy-quinolin-6-ylmeth-(Z)-ylidine)-2-((1R,2S)-2-phenyl-cyclopropylamino)-thiazol-4-one]	251 to 253 °C	
CCOc1ccnc2ccc(/C=C3\SC(NCc4cccs4)=NC3=O)cc12 [Example 4, 5-(4-Ethoxy-quinolin-6-ylmeth-(Z)-ylidine)-2-[(thiophen-2-ylmethyl)-amino]-thiazol-4-one]	226 to 228 °C	
CCOc1ccnc2ccc(/C=C3\SC(N[C@H]4C[C@@H]4c4ccccc4)=NC3=O)cc12 [Example 5, 5-(4-Ethoxy-quinolin-6-ylmeth-(Z)-ylidine)-2-((1R,2S)-2-phenyl-cyclopropylamino)-thiazol-4-one]	266 to 268 °C	39 nM
O=C1N=C(N[C@H]2C[C@@H]2c2ccccc2)S/C1=C\c1ccc2nccc(OCC3CCCCC3)c2c1 [Example 10, 5-(4-Cyclohexylmethoxy-quinolin-6-ylmeth-(Z)-ylidine)-2-((1R,2S)-2-phenyl-cyclopropylamino)-thiazol-4-one]	223 to 227 °C	1190 nM
O=C1N=C(NCc2cccs2)S/C1=C\c1ccc2nccc(N3CCOCC3)c2c1 [Example 15, 5-(4-Morpholin-4-yl-quinolin-6-ylmeth-(Z)-ylidine)-2-[(thiophen-2-ylmethyl)-amino]-thiazol-4-one]		210 nM
COCCOc1ccnc2ccc(/C=C3\SC(N)=NC3=O)cc12 [Example 20, 2-Amino-5-[4-(2-methoxy-ethoxy)-quinolin-6-ylmeth-(Z)-ylidine]-thiazol-4-one as trifluoroacetate salt]		32 nM
O=C1N=C(NCc2cccs2)S/C1=C\c1ccc2nccc(Oc3ccccc3)c2c1 [Example 24, 5-(4-Phenoxy-quinolin-6-ylmeth-(Z)-ylidine)-2-[(thiophen-2-ylmethyl)-amino]-thiazol-4-one]	239 to 240.5 °C	
NC1=NC(=O)/C(=C/c2ccc3nccc(Oc4ccccc4)c3c2)S1 [Example 25, 2-Amino-5-(4-phenoxy-quinolin-6-ylmeth-(Z)-ylidine)-thiazol-4-one]		340 nM
CCOc1ccnc2ccc(/C=C3\SC(NCc4cnc(C)cn4)=NC3=O)cc12 [Example 30, 2-[(5-Methyl-pyrazin-2-ylmethyl)-amino]-5-(4-ethoxy-quinolin-6-ylmeth-(Z)-ylidine)-thiazol-4-one]		281 nM
CCSc1ccnc2ccc(/C=C3\SC(N[C@H]4C[C@@H]4c4ccccc4)=NC3=O)cc12 [Example 35, 5-(4-Ethylsulfanyl-quinolin-6-ylmeth-(Z)-ylidine)-2-((1R,2S)-2-phenyl-cyclopropylamino)-thiazol-4-one]		37.2 nM
CCOc1ccnc2ccc(/C=C3\SC(NCCc4cccc(F)c4)=NC3=O)cc12 [Example 40]		13 nM
